# Assay results taken from patent US11834417B2, “Compositions for the treatment of hypertension and/or fibrosis” (Vectus Biosystems Limited, priority 2016, dated 2023).
# Experiments:
# [1] = test system: spontaneous hypertensive rats (SHR); assay: Myocardial fibrosis quantitation (Masson's Trichrome) in SHR on a 2.2% salt diet; assay type: in vivo, rat; settings: 4 weeks
# Excerpt: (§1) Fourteen week old spontaneous hypertensive rats (SHR; Australian Animal Resources Centre, WA) on a 2.2% salt diet (Glenn Forrest Stockfeeders, WA) were randomized to the following treatment groups: 14-week control, or VB0002 infusion (20 pmol/kg/min in 20% DMSO) or vehicle control infusion (20% DMSO) for 4 weeks. VB0002 and vehicle control infusions were via Alzet osmotic minipump, which was inserted under general anaesthesia (Isoflurane 3% in oxygen) at 14 weeks.
# Fourteen week old spontaneous hypertensive rats on a 2.2% salt diet were also randomized to the following treatment groups: 14-week control, or VB0003 administration (10, 100 or 500 pmol/kg/min in 5% ethanol), VB0005 administration (100 pmol/kg/min in 5% ethanol) or drinking solution (5% ethanol) administration for 4 weeks.
# (§2) The 14-week control group were anaesthetized using isoflurane (3%) delivered in oxygen, then had blood sampled and hearts and kidneys harvested for quantitation of fibrosis. The remaining groups were weighed and had blood pressure measured by tail cuff plethysmography (ADI Instruments) twice weekly for a further 4 weeks. After 4 weeks treatment, rats were anaesthetized and samples collected as per the 14-week control group. Results are mean±sem for n=5 rats per group.
# For quantitation of fibrosis, tissue slices ≤3 mm thick were fixed in 10% buffered formalin for 24 hours, processed and embedded in paraffin. Three μm transverse sections were stained using Masson's Trichrome. A minimum of 20 random fields at 40× magnification from transverse sections ([…]) were digitized. The degree of fibrosis was determined as a percent of field area of each digitized image using Image-Pro Plus V.5 (Media Cybernetics, Bethesda, Md., USA), and then averaged to determine the level of fibrosis for each rat.
# [2] = test system: spontaneous hypertensive rats (SHR); assay: Systolic blood pressure by tail cuff plethysmography in SHR on a 2.2% salt diet; assay type: in vivo, rat
# Excerpt: as §1, with “14 weeks. […]” for “14 weeks.”
# as §2
# [3] = 100 pmol/kg/min in drinking solution (5% ethanol), compared to 14 week controls
# [4] = 100 pmol/kg/min in drinking solution (5% ethanol), compared to 18 week controls
# [5] = in 5% ethanol in the drinking solution for 4 weeks (FIG. 9:), compared to 18 week controls (p<0.0005)
Compound,"Myocardial fibrosis ([1]; 10 pmol/kg/min in drinking solution (5% ethanol), compared to 18 week controls)","Myocardial fibrosis [1, 3]","Myocardial fibrosis [1, 4]","Myocardial fibrosis ([1]; 500 pmol/kg/min in drinking solution (5% ethanol), compared to 14 week controls)","Myocardial fibrosis ([1]; 500 pmol/kg/min in drinking solution (5% ethanol), compared to 18 week controls)","Systolic blood pressure [2, 5]","Myocardial fibrosis ([1]; 20 pmol/kg/min infusion via osmotic minipump, compared to 14 week controls (FIG. 10))","Myocardial fibrosis ([1]; 20 pmol/kg/min infusion via osmotic minipump, compared to 18 week controls (FIG. 10))","Systolic blood pressure ([2]; in 20% DMSO intravenously via osmotic minipump for 4 weeks, compared to 18 week controls (FIG. 8, p<0.005))",melting point
"CC(O)Cc1c(-c2ccccc2)ncn1Cc1cccc(O)c1 (centres unmarked) [VB0003, 3-[5-(2-hydroxypropyl)-4-phenyl-imidazol-1-ylmethyl]-phenol]",reduced,reduced,reduced,reduced,reduced,reduced,–,–,–,–
"NC(=O)Cc1c(Cc2ccccc2)ncn1Cc1cccc(O)c1 [VB0002, 2-[4-Benzyl-1-(3-hydroxybenzyl)-1H-imidazol-5-yl]acetamide]",–,–,–,–,–,–,reduced,reduced,reduced,249 °C (dec.)
CC(O)Cc1c(-c2ccccc2)ncn1Cc1cccc(O)c1.Cl (centres unmarked),–,–,–,–,–,–,–,–,–,84 to 88 °C
"NC(=O)CC[C@H]1CN(c2ccccc2)CCN1c1cccc(O)c1 [VB0005, (S)-3-[1-(3-Hydroxy)phenyl-4-phenylpiperazin-2-yl]propanamide]",–,reduced,reduced,–,–,reduced,–,–,–,–
